The term EC50 denotes the midpoint of the concentration-response curve.

Read-outs that look alike come from different tables or passages of the source.

The source of these data is patent publication US20230382925A1, “MODULATORS OF CYSTIC FIBROSIS TRANSMEMBRANE CONDUCTANCE REGULATOR” (VERTEX PHARMACEUTICALS INCORPORATED, priority 2020, published 2023).

The assay concerns the target CFTR (Homo sapiens, UniProt P13569). As to the kind of experiment: Membrane Potential Dye, Enteroid Assay B. The format is cell-based. An outline of the steps: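 Human intestinal enteroid cells exposed to compound 18-24 h at 37 °C, then loaded with methyl oxonol membrane-potential dye plus CaCC blockers. Chloride transport triggered in chloride-free buffer with 10 μM forskolin, 100 μM IBMX, 300 nM Compound III; fluorescence read 15 min, expressed as % of triple-corrector/potentiator combination control.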

[1] abbreviates: Table 10, read-out: Ent. B EC50.

CFTR, sequence (P13569 with tags, fused parts or gaps DEL508-508): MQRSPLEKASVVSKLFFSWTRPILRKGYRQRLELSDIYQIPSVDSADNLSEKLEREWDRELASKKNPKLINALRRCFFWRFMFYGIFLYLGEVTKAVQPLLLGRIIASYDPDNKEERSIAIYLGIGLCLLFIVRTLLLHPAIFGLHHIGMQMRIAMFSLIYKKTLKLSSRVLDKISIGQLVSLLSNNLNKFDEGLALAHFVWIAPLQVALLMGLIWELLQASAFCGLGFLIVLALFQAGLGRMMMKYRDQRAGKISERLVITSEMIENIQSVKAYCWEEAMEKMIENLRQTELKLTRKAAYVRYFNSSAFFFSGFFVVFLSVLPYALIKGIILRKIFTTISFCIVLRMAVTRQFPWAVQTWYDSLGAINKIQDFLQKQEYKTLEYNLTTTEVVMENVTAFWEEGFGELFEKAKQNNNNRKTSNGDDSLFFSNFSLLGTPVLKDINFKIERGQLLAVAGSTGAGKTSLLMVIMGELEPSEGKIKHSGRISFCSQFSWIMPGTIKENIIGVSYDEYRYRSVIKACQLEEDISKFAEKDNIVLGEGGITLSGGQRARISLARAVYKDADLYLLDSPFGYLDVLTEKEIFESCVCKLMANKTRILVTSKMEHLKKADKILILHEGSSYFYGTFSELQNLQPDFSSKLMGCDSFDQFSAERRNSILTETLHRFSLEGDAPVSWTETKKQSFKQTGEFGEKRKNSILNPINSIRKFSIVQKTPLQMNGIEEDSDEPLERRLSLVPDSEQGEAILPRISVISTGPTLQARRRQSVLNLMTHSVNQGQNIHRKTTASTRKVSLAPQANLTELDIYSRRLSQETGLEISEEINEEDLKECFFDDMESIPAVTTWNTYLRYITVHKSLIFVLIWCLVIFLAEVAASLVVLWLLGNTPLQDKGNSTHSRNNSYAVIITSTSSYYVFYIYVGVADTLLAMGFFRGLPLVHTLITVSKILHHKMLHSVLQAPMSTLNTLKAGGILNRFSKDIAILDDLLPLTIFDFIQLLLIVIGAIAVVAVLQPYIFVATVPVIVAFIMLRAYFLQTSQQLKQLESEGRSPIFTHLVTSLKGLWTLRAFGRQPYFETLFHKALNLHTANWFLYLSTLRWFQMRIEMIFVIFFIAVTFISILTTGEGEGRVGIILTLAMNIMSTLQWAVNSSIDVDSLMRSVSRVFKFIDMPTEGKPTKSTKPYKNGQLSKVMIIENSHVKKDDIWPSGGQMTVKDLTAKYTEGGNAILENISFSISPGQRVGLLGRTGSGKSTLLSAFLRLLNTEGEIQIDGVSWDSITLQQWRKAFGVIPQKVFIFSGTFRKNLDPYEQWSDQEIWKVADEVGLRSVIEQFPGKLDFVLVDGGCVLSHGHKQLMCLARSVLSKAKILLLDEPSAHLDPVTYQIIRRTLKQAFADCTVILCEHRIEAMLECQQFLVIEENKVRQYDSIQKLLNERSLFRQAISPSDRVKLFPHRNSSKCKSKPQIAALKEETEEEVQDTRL

Consider `[H][C@]1(N2C(=O)c3cccc(c3)S(=O)(=O)Nc3nc(cc(-c4c(C)cccc4C)n3)OC[C@H]2CCC(C)C)C[C@@]2(C[C@H](C(C)(C)O)C2)C1` (single isomer, unassigned) [Compound 4], for which, where the note is “Table 10”, the “Ent. B Max Activity (%)” value is “+++ (+++ is >60%)”. In addition, the EC50 under setting [1] was less than 1000 nM.
For `Cc1cccc(C)c1-c1cc2nc(n1)NS(=O)(=O)c1cccc(c1)C(=O)N(C1CC3(C1)CC(CO)(CO)C3)[C@H](CC(C)(C)C)CO2` [Compound 354] the same measures were “+++ (+++ is >60%)” and less than 1000 nM.
For `[H][C@]1(N2C(=O)c3cccc(c3)S(=O)(=O)Nc3nc(cc(-c4c(C)cccc4C)n3)OC[C@H]2CC2(C(F)(F)F)CC2)C[C@]2(C[C@@H](CO)C2)C1` (single isomer, unassigned) [Compound 135], the “Ent. B Max Activity (%)” value is given as “+++ (+++ is >60%)”. The EC50 (read-out: Ent. B EC50) was less than 1000 nM.
Consider `Cc1cccc(C)c1-c1cc2nc(n1)NS(=O)(=O)c1cccc(c1)C(=O)N([C@H]1C[C@@H](N)C1)[C@H](CC1(C(F)(F)F)CC1)CO2` (single isomer, unassigned) [Compound 56], for which the “Ent. B Max Activity (%)” value (Table 9) is reported as “+++ (+++ is >60%)”. Also, under “Table 9, read-out: Ent. B EC50”, the EC50 is less than 1000 nM.
For `Cc1cccc(C)c1-c1cc2nc(n1)NS(=O)(=O)c1cccc(c1)C(=O)N(C1CC(N(C)C)C1)[C@H](CC1(C(F)(F)F)CC1)CO2` (single isomer, unassigned) [Compound 61], the “Ent. B Max Activity (%)” value (Table 10) is “+++ (+++ is >60%)”. Further, under setting [1], the concentration for a half-maximal effect (EC50) was less than 1000 nM.
For `COC(=O)N1CCC2(CC1)CC(N1C(=O)c3cccc(n3)S(=O)(=O)Nc3nc(cc(-c4c(C)cccc4C)n3)OC[C@H]1CC(C)C)C2` [Compound 391], the “Ent. B Max Activity (%)” value was “+++ (+++ is >60%)”. The EC50 (read-out: Ent. B EC50) was less than 1000 nM.
Regarding `COC(=O)N1CCC2(CC1)CC(N1C(=O)c3cccc(c3)S(=O)(=O)Nc3nc(cc(-c4c(C)cccc4C)n3)OC[C@H]1CC(C)(C)C(F)(F)F)C2` [Compound 191, Methyl 2-[(11R)-6-(2,6-dimethylphenyl)-2,2,13-trioxo-11-(3,3,3-trifluoro-2,2-dimethylpropyl)-9-oxa-2λ^6-thia-3,5,12,19-tetraazatricyclo[12.3.1.14,8]nonadeca-1(17),4(19),5,7,14(18),15-hexaen-12-yl]-7-azaspiro[3.5]nonane-7-carboxylate], where the note is “Table 9”, the “Ent. B Max Activity (%)” value is recorded as “+++ (+++ is >60%)”. Moreover, where the note is “Table 9, read-out: Ent. B EC50”, the EC50 is less than 1000 nM.
For `Cc1cccc(C)c1-c1cc2nc(n1)NS(=O)(=O)c1cccc(c1)C(=O)N(C1CC(NC(=O)OC(C)C)C1)[C@H](CC(C)(C)C(F)(F)F)CO2` (single isomer, unassigned) [Compound 192], the “Ent. B Max Activity (%)” value (Table 10) was “+++ (+++ is >60%)”. The concentration for a half-maximal effect (EC50) under setting [1] is less than 1000 nM.
For `COC1(C)CCN(C(=O)C2CC(N3C(=O)c4cccc(c4)S(=O)(=O)Nc4nc(cc(-c5c(C)cccc5C)n4)OC[C@H]3CC(C)C)C2)CC1` (stereo partly drawn) [Compound 309], the “Ent. B Max Activity (%)” value was “+++ (+++ is >60%)”. Also, the EC50 (read-out: Ent. B EC50) is less than 1000 nM.
Take `COC(=O)N(C)[C@]1(C)C[C@H](N2C(=O)c3cccc(c3)S(=O)(=O)Nc3nc(cc(-c4c(C)cccc4C)n3)OC[C@H]2CC(C)(C)C)C1` (single isomer, unassigned) [Compound 173]: the “Ent. B Max Activity (%)” value (Table 10) is on record as “++ (++ is 30-60%)”. Moreover, the EC50 under setting [1] is less than 1000 nM.
As for `CC(C)C[C@@H]1COc2cc(-c3c(C(F)(F)F)cccc3C(F)(F)F)nc(n2)NS(=O)(=O)c2cccc(c2)C(=O)N1C1CC2(CC2)C1` [Compound 186, (11R)-6-[2,6-Bis(trifluoromethyl)phenyl]-11-isobutyl-2,2-dioxo-12-spiro[2.3]hexan-5-yl-9-oxa-2λ^6-thia-3,5,12,19-tetrazatricyclo[12.3.1.14,8]nonadeca-1(18),4,6,8(19),14,16-hexaen-13-one], the “Ent. B Max Activity (%)” value (Table 9) is given as “++ (++ is 30-60%)”. For the same compound, the EC50 (Table 9, read-out: Ent. B EC50) was less than 1000 nM.
For `[H][C@]1(N2C(=O)c3cccc(c3)S(=O)(=O)Nc3nc(cc(-c4c(C)cccc4C)n3)OC[C@H]2CC(C)C)C[C@@]2(C[C@H](N(C)C(=O)OC(C)C)C2)C1` (stereo partly drawn) [Compound 284] the same measures were “++ (++ is 30-60%)” and less than 1000 nM.
